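Briefly, cells in 96-well plates were exposed to five compound concentrations for 48 h, and endpoints were estimated by linear interpolation. The concentration for 50% growth inhibition is given as GI50. The concentration for full growth arrest is given as TGI.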
What was measured:
Experiment in all cases: DTP human tumour cell line panel, 48 h
[1] = system: 786-0 renal
[2] = system: DU-145 prostate
[3] = system: HCT-15 colon
[4] = system: HOP-62 NSCLC
[5] = system: HOP-92 NSCLC
[6] = system: HS 578T breast
[7] = system: MCF7 breast
[8] = system: MDA-MB-435
[9] = system: NCI-H226 lung
[10] = system: NCI/ADR-RES ovarian
[11] = system: OVCAR-8 ovarian
[12] = system: SF-268 CNS
[13] = system: SF-295 CNS
[14] = system: SK-MEL-5 melanoma
[15] = system: SNB-19 CNS
[16] = system: SNB-75 CNS
[17] = system: SR leukemia
[18] = system: A498 renal
[19] = system: ACHN renal
[20] = system: BT-549 breast
[21] = system: CAKI-1 renal
[22] = system: CCRF-CEM leukemia
[23] = system: COLO 205 colon
[24] = system: EKVX NSCLC
[25] = system: HCC-2998 colon
[26] = system: HL-60(TB) leukemia
[27] = system: IGROV1 ovarian
[28] = system: K-562 leukemia
[29] = system: KM12 colon
[30] = system: LOX IMVI melanoma
[31] = system: MALME-3M melanoma
[32] = system: MDA-MB-231 breast
[33] = system: MOLT-4 leukemia
[34] = system: NCI-H23 lung
[35] = system: NCI-H460 lung
[36] = system: NCI-H522 lung
[37] = system: OVCAR-3 ovarian
[38] = system: OVCAR-4 ovarian
[39] = system: OVCAR-5 ovarian
[40] = system: PC-3 prostate
[41] = system: RPMI-8226 leukemia
[42] = system: RXF 393 renal
[43] = system: SF-539 CNS
[44] = system: SK-MEL-2 melanoma
[45] = system: SK-MEL-28 melanoma
[46] = system: SK-OV-3 ovarian
[47] = system: SW-620 colon
[48] = system: TK-10 renal
[49] = system: U251 CNS
[50] = system: UACC-257 melanoma
[51] = system: UACC-62 melanoma
[52] = system: A549 NSCLC
[53] = system: HCT-116 colon
[54] = system: HT29 colon
[55] = system: M14 melanoma
[56] = system: SN12C renal
[57] = system: UO-31 renal

Molecule `COc1ccc(C(=O)/C=C/c2cc3c(c(OC)c2)OCC(=O)N3)cc1` has a GI50 [1] of 3.36 µM, a TGI [1] greater than 100 µM and a GI50 [2] of 2.74 µM. For the same molecule, the TGI [2] was greater than 100 µM, the GI50 [3] was 1.92 µM and the TGI [3] was greater than 100 µM. The GI50 [4] was 3.73 µM, the TGI [4] was greater than 100 µM and the GI50 [5] was 1.27 µM. It also gave a TGI [5] of 17.7 µM, a GI50 [6] of 3.63 µM and a TGI [6] greater than 100 µM. It also gave a GI50 [7] of 2.32 µM, a TGI [7] greater than 100 µM and a GI50 [8] of 3.11 µM. For the same molecule, the TGI [8] was greater than 100 µM, the GI50 [9] was 3.88 µM and the TGI [9] was greater than 100 µM. The GI50 [10] was 3.14 µM, the TGI [10] was greater than 100 µM and the GI50 [11] was 2.85 µM. The TGI [11] was greater than 100 µM, the GI50 [12] was 3.42 µM and the TGI [12] was greater than 100 µM. For the same molecule, the GI50 [13] was 4.57 µM, the TGI [13] was greater than 100 µM and the GI50 [14] was 2.88 µM. For the same molecule, the TGI [14] was greater than 100 µM, the GI50 [15] was 3.26 µM and the TGI [15] was greater than 100 µM. For the same molecule, the GI50 [16] was 1.66 µM, the TGI [16] was 11.5 µM and the GI50 [17] was 1.05 µM. For the same molecule, the TGI [17] was greater than 100 µM.

Work on `N=c1c2c(=S)n(-c3ccccc3)c(=S)n(-c3ccccc3)c2nc(SCCCN2CCN(c3cccc(Cl)c3)CC2)n1-c1ccccc1` yielded a TGI [18] greater than 100 µM, a TGI [19] greater than 100 µM and a TGI [20] greater than 100 µM. For the same molecule, the TGI [21] was greater than 100 µM, the TGI [22] was greater than 100 µM and the TGI [23] was greater than 100 µM. It also gave a TGI [2] greater than 100 µM, a TGI [24] greater than 100 µM and a TGI [25] greater than 100 µM. It also gave a TGI [3] greater than 100 µM, a TGI [26] greater than 100 µM and a TGI [4] greater than 100 µM. The TGI [5] was greater than 100 µM, the TGI [6] was greater than 100 µM and the TGI [27] was greater than 100 µM. It also gave a TGI [28] greater than 100 µM, a TGI [29] greater than 100 µM and a TGI [30] greater than 100 µM. It also gave a TGI [31] greater than 100 µM, a TGI [7] greater than 100 µM and a TGI [32] of 70.9 µM. It also gave a TGI [8] greater than 100 µM, a TGI [33] greater than 100 µM and a TGI [9] greater than 100 µM. It also gave a TGI [34] greater than 100 µM, a TGI [35] greater than 100 µM and a TGI [36] greater than 100 µM. For the same molecule, the TGI [10] was greater than 100 µM, the TGI [37] was greater than 100 µM and the TGI [38] was greater than 100 µM. The TGI [39] was greater than 100 µM, the TGI [11] was greater than 100 µM and the TGI [40] was greater than 100 µM. It also gave a TGI [41] greater than 100 µM, a TGI [42] greater than 100 µM and a TGI [13] greater than 100 µM. The TGI [43] was greater than 100 µM, the TGI [44] was greater than 100 µM and the TGI [45] was greater than 100 µM. The TGI [14] was greater than 100 µM, the TGI [46] was greater than 100 µM and the TGI [16] was greater than 100 µM. For the same molecule, the TGI [17] was greater than 100 µM, the TGI [47] was greater than 100 µM and the TGI [48] was greater than 100 µM. It also gave a TGI [49] greater than 100 µM, a TGI [50] greater than 100 µM and a TGI [51] greater than 100 µM.

`COC(=O)Nc1nc2ccc(C(=O)c3ccc(N(C)C4COC4)cc3)cc2[nH]1` gave a GI50 [1] of 0.5 µM, a TGI [1] greater than 100 µM and a GI50 [18] of 0.413 µM. For the same molecule, the TGI [18] was greater than 100 µM, the GI50 [52] was 0.655 µM and the TGI [52] was greater than 100 µM. It also gave a GI50 [19] of 0.846 µM, a TGI [19] greater than 100 µM and a GI50 [20] of 2.08 µM. The TGI [20] was greater than 100 µM, the GI50 [21] was 0.435 µM and the TGI [21] was greater than 100 µM. It also gave a GI50 [22] of 0.309 µM, a TGI [22] greater than 100 µM and a GI50 [23] of 0.285 µM. For the same molecule, the TGI [23] was 1.03 µM, the GI50 [2] was 0.392 µM and the TGI [2] was greater than 100 µM. For the same molecule, the GI50 [24] was 0.708 µM, the TGI [24] was greater than 100 µM and the GI50 [25] was 0.716 µM. For the same molecule, the TGI [25] was greater than 100 µM, the GI50 [53] was 0.36 µM and the TGI [53] was greater than 100 µM. The GI50 [3] was 0.303 µM, the TGI [3] was greater than 100 µM and the GI50 [26] was 0.266 µM. For the same molecule, the TGI [26] was 2.85 µM, the GI50 [4] was 0.471 µM and the TGI [4] was greater than 100 µM. For the same molecule, the GI50 [5] was 0.62 µM, the TGI [5] was 45.9 µM and the GI50 [6] was 0.358 µM. For the same molecule, the TGI [6] was greater than 100 µM, the GI50 [54] was 0.34 µM and the TGI [54] was greater than 100 µM. For the same molecule, the GI50 [27] was 0.905 µM, the TGI [27] was greater than 100 µM and the GI50 [28] was 0.333 µM. The TGI [28] was greater than 100 µM, the GI50 [29] was 0.36 µM and the TGI [29] was greater than 100 µM. The GI50 [30] was 0.761 µM, the TGI [30] was greater than 100 µM and the GI50 [55] was 0.279 µM. The TGI [55] was greater than 100 µM, the GI50 [7] was 0.346 µM and the TGI [7] was greater than 100 µM. It also gave a GI50 [32] of 0.608 µM, a TGI [32] greater than 100 µM and a GI50 [33] of 0.672 µM. The TGI [33] was greater than 100 µM, the GI50 [9] was 1.99 µM and the TGI [9] was greater than 100 µM. It also gave a GI50 [34] of 0.713 µM, a TGI [34] greater than 100 µM and a GI50 [35] of 0.359 µM. The TGI [35] was greater than 100 µM, the GI50 [36] was 0.337 µM and the TGI [36] was 4.34 µM. The GI50 [10] was 0.362 µM, the TGI [10] was greater than 100 µM and the GI50 [37] was 0.375 µM. For the same molecule, the TGI [37] was greater than 100 µM, the GI50 [38] was 2.85 µM and the TGI [38] was greater than 100 µM. The GI50 [39] was 0.746 µM, the TGI [39] was greater than 100 µM and the GI50 [11] was 0.482 µM. The TGI [11] was greater than 100 µM, the GI50 [40] was 0.379 µM and the TGI [40] was greater than 100 µM. The GI50 [41] was 0.369 µM, the TGI [41] was greater than 47.5 µM and the GI50 [12] was 0.745 µM. It also gave a TGI [12] greater than 100 µM, a GI50 [13] of 0.28 µM and a TGI [13] greater than 100 µM. It also gave a GI50 [43] of 0.264 µM, a TGI [43] of 1.16 µM and a GI50 [44] of 0.593 µM. The TGI [44] was greater than 100 µM, the GI50 [45] was greater than 100 µM and the TGI [45] was greater than 100 µM. For the same molecule, the GI50 [14] was 0.425 µM, the TGI [14] was 3.99 µM and the GI50 [46] was 0.536 µM. The TGI [46] was greater than 100 µM, the GI50 [56] was 0.561 µM and the TGI [56] was greater than 100 µM. For the same molecule, the GI50 [15] was 0.435 µM, the TGI [15] was greater than 100 µM and the GI50 [16] was 0.227 µM. The TGI [16] was greater than 100 µM, the GI50 [17] was 0.188 µM and the TGI [17] was greater than 100 µM. For the same molecule, the GI50 [47] was 0.355 µM, the TGI [47] was greater than 100 µM and the GI50 [48] was 31.3 µM. For the same molecule, the TGI [48] was greater than 100 µM, the GI50 [49] was 0.397 µM and the TGI [49] was greater than 100 µM. It also gave a GI50 [50] greater than 100 µM, a TGI [50] greater than 100 µM and a GI50 [51] of 0.38 µM. The TGI [51] was greater than 100 µM, the GI50 [57] was 0.883 µM and the TGI [57] was greater than 100 µM.

From PubChem BioAssay (NCI)
